Assay results taken from patent US11000033B2, “Ketone or oxime compound, and herbicide” (NISSAN CHEMICAL CORPORATION, priority 2014, dated 2021).

Experiments:
Assay type in all cases: in vivo
[1] = system: directly sowed rice plant; test: Test Example 3: effect on crop by foliage application, Wagner pot (symbol b); conditions: application herbicide amount 320 g/ha
Method in brief: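 Plants are raised from seed in flooded paddy conditions: water stands 0.1–0.5 cm over alluvial soil, and the pot is kept in a greenhouse at 25–30 °C. Species sown are barnyardgrass (E. crus-galli var. crus-galli), Leptochloa chinensis, Cyperus difformis and rice.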

Amaranthus retroflexus = test: Test Example 5: herbicidal effect by foliage application, plastic box (symbol N); conditions: 320 g/ha, 3 weeks after application
Method in brief: (§1)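 Leaf-applied emulsion, water-diluted to a preset herbicide dose, on two-week-old seedlings raised in a 25° C. to 30° C. greenhouse; injury rated at 3 weeks using earlier criteria.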

soybean [2] = test: Test Example 4: effect on crop by soil treatment (symbol d); conditions: for d: soybean, effect grade on crop: 320 g/ha
Method in brief: (§2)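 Plants grew in a 25° C. to 30° C. greenhouse after spot-sowing of seeds, including beet, rapeseed, wheat and rice, into sterilized diluvial soil under roughly 1.5 cm of cover soil.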

Digitaria ciliaris = test: Test Example 4: herbicidal effect by soil treatment (symbol F); conditions: for F: Digitaria ciliaris, herbicidal effect grade: 320 g/ha
Method in brief: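 Seeds were sown in sterilized diluvial soil, covered with about 1.5 cm of soil, and the soil surface was sprayed with a water-diluted emulsion of the compound at a predetermined rate. Plants grew in a greenhouse at 25° C. to 30° C.; effects were scored visually 3 weeks after application.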

Monochoria vaginalis = test: Test Example 1: herbicidal activity, application before weed generation in submerged conditions (symbol C); conditions: application herbicide amount 320 g/ha
Method in brief: (§3)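 In a flooded pot test with alluvial soil, the emulsion-formulated compound was diluted with water to a predetermined amount and applied to the floodwater immediately on the sowing day. Pots were held in a greenhouse at 25–30 °C for 3 weeks before each weed was rated.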

wheat [3] = test: Test Example 5: effect on crop by foliage application, plastic box (symbol e); conditions: 320 g/ha, 3 weeks after application
Method in brief: (§4)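 Greenhouse test at 25° C. to 30° C. Seeds of crops and weeds were spot-sown in boxes of sterilized diluvial soil under roughly 1.5 cm soil cover, then grown for foliage treatment.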

wheat [4] = test: Test Example 4: effect on crop by soil treatment (symbol e); conditions: for e: wheat, effect grade on crop: 320 g/ha
Method in brief: as §2

[5] = system: Echinochloa oryzacola Vasing.; test: Test Example 1: herbicidal activity, application before weed generation in submerged conditions (symbol A); conditions: application herbicide amount 320 g/ha
Method in brief: as §3

soybean [6] = test: Test Example 5: effect on crop by foliage application, plastic box (symbol d); conditions: 320 g/ha, 3 weeks after application
Method in brief: as §4

Chenopodium album = test: Test Example 5: herbicidal effect by foliage application, plastic box (symbol O); conditions: 320 g/ha, 3 weeks after application
Method in brief: as §1

Lolium multiflorum Lam. = test: Test Example 5: herbicidal effect by foliage application, plastic box (symbol K); conditions: 320 g/ha, 3 weeks after application
Method in brief: as §1

beet = test: Test Example 5: effect on crop by foliage application, plastic box (symbol f); conditions: 320 g/ha, 3 weeks after application
Method in brief: as §4

[7] = system: Echinochloa crus-galli var. crus-galli; test: Test Example 5: herbicidal effect by foliage application, plastic box (symbol H); conditions: 320 g/ha, 3 weeks after application
Method in brief: as §1

Galium spurium = test: Test Example 5: herbicidal effect by foliage application, plastic box (symbol Q); conditions: 320 g/ha, 3 weeks after application
Method in brief: as §1

Veronica persica = test: Test Example 5: herbicidal effect by foliage application, plastic box (symbol R); conditions: 320 g/ha, 3 weeks after application
Method in brief: as §1

rapeseed = test: Test Example 4: effect on crop by soil treatment (symbol g); conditions: for g: rapeseed, effect grade on crop: 320 g/ha
Method in brief: as §2

[8] = application herbicide amount 320 g/ha

Structure (SMILES) | effect on crop b (directly sowed rice plant), grade 0-5 [1] | N: Amaranthus retroflexus, herbicidal effect (criteria 0-5) (Amaranthus retroflexus) | d: soybean, effect grade on crop (soybean [2]) | F: Digitaria ciliaris, herbicidal effect grade (Digitaria ciliaris) | Herbicidal effect grade, C: Monochoria vaginalis (Monochoria vaginalis) | e: wheat, effect on crop (criteria 0-5) (wheat [3]) | e: wheat, effect grade on crop (wheat [4]) | Herbicidal effect grade, A: Echinochloa oryzacola Vasing. [5] | d: soybean, effect on crop (criteria 0-5) (soybean [6]) | O: Chenopodium album, herbicidal effect (criteria 0-5) (Chenopodium album) | K: Lolium multiflorum Lam., herbicidal effect (criteria 0-5) (Lolium multiflorum Lam.) | f: beet, effect on crop (criteria 0-5) (beet) | H: Echinochloa crus-galli var. crus-galli, herbicidal effect (criteria 0-5) [7] | Q: Galium spurium, herbicidal effect (criteria 0-5) (Galium spurium) | R: Veronica persica, herbicidal effect (criteria 0-5) (Veronica persica) | g: rapeseed, effect grade on crop (rapeseed) | also measured
CC#Cc1cc(C)c(C2=C(O)CC(CC(=NOC)C3CC3)C2=O)c(C)c1 (stereo not shown) [9-008] |  |  |  |  |  |  |  |  |  |  |  |  |  |  |  |  | b (directly sowed rice plant) effect on crop grade ([1]; Table 24): 5 (Herbicidal ratio of 90% or more (almost completely withered)); N: Amaranthus retroflexus, herbicidal effect grade (Amaranthus retroflexus): 0 (Herbicidal ratio of 5% or lower (almost no effect)); Effect on crop grade, d: soybean (soybean [2]; [8]): 0 (Herbicidal ratio of 5% or lower (almost no effect)); Herbicidal effect grade, F: Digitaria ciliaris (Digitaria ciliaris; [8]): 5 (Herbicidal ratio of 90% or more (almost completely withered)); C (Monochoria vaginalis) herbicidal effect grade (Monochoria vaginalis): 4 (Herbicidal ratio of 70% or higher and lower than 90%); e: wheat, effect on crop grade (wheat [3]): 5 (Herbicidal ratio of 90% or more (almost completely withered)); Effect on crop grade, e: wheat (wheat [4]; [8]): 5 (Herbicidal ratio of 90% or more (almost completely withered)); A (Echinochloa oryzacola Vasing.) herbicidal effect grade [5]: 5 (Herbicidal ratio of 90% or more (almost completely withered)); d: soybean, effect on crop grade (soybean [6]): 3 (Herbicidal ratio of 40% or higher and lower than 70%); O: Chenopodium album, herbicidal effect grade (Chenopodium album): 3 (Herbicidal ratio of 40% or higher and lower than 70%); K: Lolium multiflorum Lam., herbicidal effect grade (Lolium multiflorum Lam.): 5 (Herbicidal ratio of 90% or more (almost completely withered)); f: beet, effect on crop grade (beet): 0 (Herbicidal ratio of 5% or lower (almost no effect)); H: Echinochloa crus-galli var. crus-galli, herbicidal effect grade [7]: 5 (Herbicidal ratio of 90% or more (almost completely withered)); Q: Galium spurium, herbicidal effect grade (Galium spurium): 2 (Herbicidal ratio of 20% or higher and lower than 40%); R: Veronica persica, herbicidal effect grade (Veronica persica): 4 (Herbicidal ratio of 70% or higher and lower than 90%); Effect on crop grade, g: rapeseed (rapeseed; [8]): 4 (Herbicidal ratio of 70% or higher and lower than 90%)
COc1ccc(CON=C(C)CC2CC(O)=C(c3c(C)cc(C)cc3C)C2=O)cc1 (stereo not shown) [1-112] | 5 (Herbicidal ratio of 90% or more (almost completely withered)) | 0 (Herbicidal ratio of 5% or lower (almost no effect)) | 0 (Herbicidal ratio of 5% or lower (almost no effect)) | 4 (Herbicidal ratio of 70% or higher and lower than 90%) | 5 (Herbicidal ratio of 90% or more (almost completely withered)) | 5 (Herbicidal ratio of 90% or more (almost completely withered)) | 0 (Herbicidal ratio of 5% or lower (almost no effect)) | 5 (Herbicidal ratio of 90% or more (almost completely withered)) | 0 (Herbicidal ratio of 5% or lower (almost no effect)) | 3 (Herbicidal ratio of 40% or higher and lower than 70%) | 5 (Herbicidal ratio of 90% or more (almost completely withered)) | 0 (Herbicidal ratio of 5% or lower (almost no effect)) | 5 (Herbicidal ratio of 90% or more (almost completely withered)) | 3 (Herbicidal ratio of 40% or higher and lower than 70%) | 3 (Herbicidal ratio of 40% or higher and lower than 70%) | 0 (Herbicidal ratio of 5% or lower (almost no effect)) | 
CON=C(C)CC1CC(OC(=O)c2nsc(Cl)c2Cl)=C(c2c(C)cc(C)cc2C)C1=O (stereo not shown) [1-099] | 5 (Herbicidal ratio of 90% or more (almost completely withered)) | 0 (Herbicidal ratio of 5% or lower (almost no effect)) | 3 (Herbicidal ratio of 40% or higher and lower than 70%) | 5 (Herbicidal ratio of 90% or more (almost completely withered)) | 2 (Herbicidal ratio of 20% or higher and lower than 40%) | 5 (Herbicidal ratio of 90% or more (almost completely withered)) | 3 (Herbicidal ratio of 40% or higher and lower than 70%) | 5 (Herbicidal ratio of 90% or more (almost completely withered)) | 4 (Herbicidal ratio of 70% or higher and lower than 90%) | 3 (Herbicidal ratio of 40% or higher and lower than 70%) | 5 (Herbicidal ratio of 90% or more (almost completely withered)) | 1 (Herbicidal ratio of 5% or higher and lower than 20%) | 5 (Herbicidal ratio of 90% or more (almost completely withered)) | 3 (Herbicidal ratio of 40% or higher and lower than 70%) | 3 (Herbicidal ratio of 40% or higher and lower than 70%) | 5 (Herbicidal ratio of 90% or more (almost completely withered)) | 
Cc1cc(C)c(C2=C(O)CC(CC(=NOCC(F)(F)F)C3CC3)C2=O)c(C)c1 (stereo not shown) [1-131] | 5 (Herbicidal ratio of 90% or more (almost completely withered)) | 0 (Herbicidal ratio of 5% or lower (almost no effect)) | 0 (Herbicidal ratio of 5% or lower (almost no effect)) | 4 (Herbicidal ratio of 70% or higher and lower than 90%) | 1 (Herbicidal ratio of 5% or higher and lower than 20%) | 2 (Herbicidal ratio of 20% or higher and lower than 40%) | 0 (Herbicidal ratio of 5% or lower (almost no effect)) | 5 (Herbicidal ratio of 90% or more (almost completely withered)) | 0 (Herbicidal ratio of 5% or lower (almost no effect)) | 0 (Herbicidal ratio of 5% or lower (almost no effect)) | 5 (Herbicidal ratio of 90% or more (almost completely withered)) | 0 (Herbicidal ratio of 5% or lower (almost no effect)) | 4 (Herbicidal ratio of 70% or higher and lower than 90%) | 0 (Herbicidal ratio of 5% or lower (almost no effect)) | 4 (Herbicidal ratio of 70% or higher and lower than 90%) | 4 (Herbicidal ratio of 70% or higher and lower than 90%) | 
